Laboratory results: ChEMBL document CHEMBL1130941, “Comparison of the intrinsic kinase activity and substrate specificity of c-Abl and Bcr-Abl” (Bioorg Med Chem Lett, 1998)
Peptide text beside a SMILES is read from it.

Experiments:
[1] = target: Tyrosine-protein kinase ABL1 (Homo sapiens) (UniProt P00519); assay: Peptide phosphorylation by c-Abl protein tyrosine kinase at 25 degree for 30 min in a cell-free system
[2] = target: T1, Bcr/Abl fusion protein (Homo sapiens) (UniProt P00519+P11274); assay: Peptide phosphorylation by Bcr-Abl protein tyrosine kinase at 25 degree for 30 min in a cell-free system; type: protein assay
[3] = target: T1, Bcr/Abl fusion protein (Homo sapiens); assay: Ratio of peptide phosphorylation by Bcr-Abl and c-Abl protein tyrosine kinases; type: protein assay
[4] = target: Tyrosine-protein kinase ABL1 (Homo sapiens) (UniProt P00519); assay: Vmax/Km value for peptide phosphorylation by c-Abl protein tyrosine kinase
[5] = target: T1, Bcr/Abl fusion protein (Homo sapiens); assay: Vmax/Km value for peptide phosphorylation by Bcr-Abl protein tyrosine kinase; type: protein assay
[6] = system: CC[C@H](C)[C@H](NC(=O)[C@H](CCC(=O)O)NC(=O)[C@@H](N)CCC(=O)O)C(=O)N[C@@H](Cc1ccc(O)cc1)C(=O)N[C@@H](CC(=O)O)C(=O)N[C@@H](Cc1ccc(O)cc1)C(=O)N[C@@H](C)C(=O)N[C@@H](Cc1ccc(O)cc1)C(=O)O; assay: (§1) Vmax value for peptide phosphorylation by Bcr-Abl protein tyrosine kinase; type: protein assay
[7] = system: CC[C@H](C)[C@H](NC(=O)[C@H](CCCN=C(N)N)NC(=O)[C@@H](N)CCC(=O)O)C(=O)N[C@@H](Cc1ccc(O)cc1)C(=O)N[C@@H](C)C(=O)N[C@@H](CCCN=C(N)N)C(=O)N[C@H](C(=O)N[C@@H](CCCCN)C(=O)O)[C@@H](C)O; assay: as §1; type: protein assay
[8] = system: CC[C@H](C)[C@H](NC(=O)[C@H](CCC(=O)O)NC(=O)[C@H](CC(=O)O)NC(=O)[C@H](Cc1ccc(O)cc1)NC(=O)[C@@H](NC(=O)[C@H](CCC(=O)O)NC(=O)[C@@H](N)CCC(=O)O)[C@@H](C)CC)C(=O)N[C@@H](Cc1ccc(O)cc1)C(=O)O; assay: as §1; type: protein assay
[9] = system: CC[C@H](C)[C@H](NC(=O)[C@H](CCC(=O)O)NC(=O)[C@@H](N)CCC(=O)O)C(=O)N[C@@H](Cc1ccc(O)cc1)C(=O)N[C@@H](Cc1ccc(O)cc1)C(=O)N[C@@H](Cc1ccc(O)cc1)C(=O)N[C@H](C(=O)N[C@@H](Cc1c[nH]cn1)C(=O)O)C(C)C; assay: as §1; type: protein assay
[10] = system: CC[C@H](C)[C@H](NC(=O)[C@H](CCC(=O)O)NC(=O)[C@@H](N)CCC(=O)O)C(=O)N[C@@H](Cc1ccc(O)cc1)C(=O)N[C@@H](CCC(=O)O)C(=O)N[C@@H](CCC(=O)O)C(=O)N1CCC[C@H]1C(=O)N[C@@H](Cc1ccc(O)cc1)C(=O)O; assay: as §1; type: protein assay
[11] = system: CC[C@H](C)[C@H](NC(=O)[C@H](CCC(=O)O)NC(=O)[C@@H](N)CCC(=O)O)C(=O)N[C@@H](Cc1ccc(O)cc1)C(=O)N[C@@H](C)C(=O)N[C@@H](CCC(=O)O)C(=O)N[C@@H](Cc1c[nH]c2ccccc12)C(=O)N[C@@H](Cc1ccccc1)C(=O)O; assay: as §1; type: protein assay
[12] = system: CC[C@H](C)[C@H](NC(=O)[C@H](CCC(=O)O)NC(=O)[C@@H](N)CCC(=O)O)C(=O)N[C@@H](Cc1ccc(O)cc1)C(=O)N[C@@H](CC(=O)O)C(=O)N[C@@H](Cc1ccc(O)cc1)C(=O)N[C@@H](C)C(=O)N[C@@H](Cc1ccc(O)cc1)C(=O)O; assay: (§2) Km value for peptide phosphorylation by Bcr-Abl protein tyrosine kinase; type: protein assay
[13] = system: CC[C@H](C)[C@H](NC(=O)[C@H](CCCN=C(N)N)NC(=O)[C@@H](N)CCC(=O)O)C(=O)N[C@@H](Cc1ccc(O)cc1)C(=O)N[C@@H](C)C(=O)N[C@@H](CCCN=C(N)N)C(=O)N[C@H](C(=O)N[C@@H](CCCCN)C(=O)O)[C@@H](C)O; assay: as §2; type: protein assay
[14] = system: CC[C@H](C)[C@H](NC(=O)[C@H](CCC(=O)O)NC(=O)[C@H](CC(=O)O)NC(=O)[C@H](Cc1ccc(O)cc1)NC(=O)[C@@H](NC(=O)[C@H](CCC(=O)O)NC(=O)[C@@H](N)CCC(=O)O)[C@@H](C)CC)C(=O)N[C@@H](Cc1ccc(O)cc1)C(=O)O; assay: as §2; type: protein assay
[15] = system: CC[C@H](C)[C@H](NC(=O)[C@H](CCC(=O)O)NC(=O)[C@@H](N)CCC(=O)O)C(=O)N[C@@H](Cc1ccc(O)cc1)C(=O)N[C@@H](Cc1ccc(O)cc1)C(=O)N[C@@H](Cc1ccc(O)cc1)C(=O)N[C@H](C(=O)N[C@@H](Cc1c[nH]cn1)C(=O)O)C(C)C; assay: as §2; type: protein assay
[16] = system: CC[C@H](C)[C@H](NC(=O)[C@H](CCC(=O)O)NC(=O)[C@@H](N)CCC(=O)O)C(=O)N[C@@H](Cc1ccc(O)cc1)C(=O)N[C@@H](CCC(=O)O)C(=O)N[C@@H](CCC(=O)O)C(=O)N1CCC[C@H]1C(=O)N[C@@H](Cc1ccc(O)cc1)C(=O)O; assay: as §2; type: protein assay
[17] = system: CC[C@H](C)[C@H](NC(=O)[C@H](CCC(=O)O)NC(=O)[C@@H](N)CCC(=O)O)C(=O)N[C@@H](Cc1ccc(O)cc1)C(=O)N[C@@H](C)C(=O)N[C@@H](CCC(=O)O)C(=O)N[C@@H](Cc1c[nH]c2ccccc12)C(=O)N[C@@H](Cc1ccccc1)C(=O)O; assay: as §2; type: protein assay

Chain of Bcr/Abl fusion protein (Homo sapiens) (from UniProt P00519+P11274) (P11274 whole entry, looked up, the tested form may be a part): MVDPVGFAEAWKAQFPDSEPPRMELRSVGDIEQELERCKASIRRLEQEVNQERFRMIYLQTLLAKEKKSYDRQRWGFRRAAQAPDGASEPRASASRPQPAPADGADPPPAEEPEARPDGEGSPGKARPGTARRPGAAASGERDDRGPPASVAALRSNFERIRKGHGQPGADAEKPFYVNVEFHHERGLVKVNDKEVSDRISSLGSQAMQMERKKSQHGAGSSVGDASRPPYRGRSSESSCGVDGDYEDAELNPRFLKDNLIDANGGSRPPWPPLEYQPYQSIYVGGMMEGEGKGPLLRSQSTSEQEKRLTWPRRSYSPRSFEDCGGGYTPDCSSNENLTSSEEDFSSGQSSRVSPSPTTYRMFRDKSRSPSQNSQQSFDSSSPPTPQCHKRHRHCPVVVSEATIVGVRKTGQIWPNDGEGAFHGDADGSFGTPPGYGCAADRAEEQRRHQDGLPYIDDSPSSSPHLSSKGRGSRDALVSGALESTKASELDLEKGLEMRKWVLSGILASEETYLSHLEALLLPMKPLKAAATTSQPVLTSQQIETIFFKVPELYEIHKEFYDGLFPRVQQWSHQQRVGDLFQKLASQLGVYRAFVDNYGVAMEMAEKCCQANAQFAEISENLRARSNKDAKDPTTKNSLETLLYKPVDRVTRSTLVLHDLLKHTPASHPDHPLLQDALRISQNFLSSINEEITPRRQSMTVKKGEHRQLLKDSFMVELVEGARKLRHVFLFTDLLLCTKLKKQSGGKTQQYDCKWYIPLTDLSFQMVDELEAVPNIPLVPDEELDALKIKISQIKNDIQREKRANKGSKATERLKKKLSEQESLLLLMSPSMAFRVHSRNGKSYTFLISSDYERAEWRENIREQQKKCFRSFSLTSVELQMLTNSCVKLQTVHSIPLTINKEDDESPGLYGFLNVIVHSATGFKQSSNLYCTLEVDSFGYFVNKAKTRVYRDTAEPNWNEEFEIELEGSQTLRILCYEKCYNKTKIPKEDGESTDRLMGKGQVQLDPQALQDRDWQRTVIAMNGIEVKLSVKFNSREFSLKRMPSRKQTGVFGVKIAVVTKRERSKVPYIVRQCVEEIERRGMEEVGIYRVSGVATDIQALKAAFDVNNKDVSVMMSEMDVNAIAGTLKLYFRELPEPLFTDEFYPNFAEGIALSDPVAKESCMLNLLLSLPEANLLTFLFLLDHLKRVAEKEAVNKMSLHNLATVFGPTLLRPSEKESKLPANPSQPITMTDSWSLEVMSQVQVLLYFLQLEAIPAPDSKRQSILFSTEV
Chain of Bcr/Abl fusion protein (Homo sapiens) (from UniProt P00519+P11274) (P00519 whole entry, looked up, the tested form may be a part): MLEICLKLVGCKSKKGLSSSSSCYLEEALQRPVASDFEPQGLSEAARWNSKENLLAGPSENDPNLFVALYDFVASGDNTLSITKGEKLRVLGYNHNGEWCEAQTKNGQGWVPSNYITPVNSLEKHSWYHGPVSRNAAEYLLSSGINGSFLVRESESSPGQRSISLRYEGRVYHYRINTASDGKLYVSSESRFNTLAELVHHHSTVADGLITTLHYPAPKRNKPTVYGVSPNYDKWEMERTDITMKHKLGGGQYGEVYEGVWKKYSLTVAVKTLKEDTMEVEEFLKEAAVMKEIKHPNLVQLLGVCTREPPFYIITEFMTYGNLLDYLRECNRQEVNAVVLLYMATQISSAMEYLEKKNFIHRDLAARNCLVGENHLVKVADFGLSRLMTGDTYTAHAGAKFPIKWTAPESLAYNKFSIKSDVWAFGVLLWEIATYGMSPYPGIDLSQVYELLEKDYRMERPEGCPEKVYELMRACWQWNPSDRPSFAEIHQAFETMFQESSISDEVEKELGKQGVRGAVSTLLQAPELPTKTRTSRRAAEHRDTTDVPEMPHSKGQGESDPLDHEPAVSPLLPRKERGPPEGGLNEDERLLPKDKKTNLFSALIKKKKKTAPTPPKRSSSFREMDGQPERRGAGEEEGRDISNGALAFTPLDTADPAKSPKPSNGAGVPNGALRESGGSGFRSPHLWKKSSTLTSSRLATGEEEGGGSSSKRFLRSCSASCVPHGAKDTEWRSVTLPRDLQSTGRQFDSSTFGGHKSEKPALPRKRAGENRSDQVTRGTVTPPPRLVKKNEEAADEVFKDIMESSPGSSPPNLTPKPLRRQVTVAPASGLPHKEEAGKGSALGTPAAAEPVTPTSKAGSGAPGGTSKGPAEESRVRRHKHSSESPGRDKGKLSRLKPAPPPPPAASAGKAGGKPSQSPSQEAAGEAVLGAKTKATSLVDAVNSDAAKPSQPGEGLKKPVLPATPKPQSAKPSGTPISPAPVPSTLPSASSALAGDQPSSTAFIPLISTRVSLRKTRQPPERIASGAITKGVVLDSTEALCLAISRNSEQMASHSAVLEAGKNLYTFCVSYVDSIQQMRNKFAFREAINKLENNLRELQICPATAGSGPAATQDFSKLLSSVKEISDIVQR
Chain of Tyrosine-protein kinase ABL1 (Homo sapiens) (P00519 whole entry, the tested form may be a part): as the sequence (P00519 whole entry, looked up, the tested form may be a part) above
T1 sequence (P00519 whole entry, looked up, the tested form may be a part): as above
T1 sequence (P11274 whole entry, looked up, the tested form may be a part): as the sequence (P11274 whole entry, looked up, the tested form may be a part) above

Row | Compound | Activity [1] | Activity [2] | Ratio [3] | Vmax / Km (10^-9 L min-1) [4] | Vmax / Km (10^-9 L min-1) [5] | further results
1 | CC[C@H](C)[C@H](NC(=O)[C@H](CCC(=O)O)NC(=O)[C@H](Cc1ccc(O)cc1)NC(=O)[C@@H](NC(=O)[C@H](CC(=O)O)NC(=O)[C@@H](N)CC(=O)O)[C@@H](C)CC)C(=O)N[C@@H](Cc1ccc(O)cc1)C(=O)N[C@@H](Cc1c[nH]c2ccccc12)C(=O)O (H-DDIYEIYW-OH) | 0.88 pmol | 4.35 pM | 4.92 | – | – | –
2 | CC[C@H](C)[C@H](NC(=O)[C@H](CCC(=O)O)NC(=O)[C@@H](N)CCC(=O)O)C(=O)N[C@@H](Cc1ccc(O)cc1)C(=O)N[C@@H](C)C(=O)N[C@@H](CCC(=O)O)C(=O)N[C@@H](Cc1c[nH]c2ccccc12)C(=O)N[C@@H](Cc1ccccc1)C(=O)O (H-EEIYAEWF-OH) | 5.69 pmol | 22.6 pM | 3.98 | 14 | 97.6 | –
3 | CC[C@H](C)[C@H](NC(=O)[C@H](CCC(=O)O)NC(=O)[C@H](CC(=O)O)NC(=O)[C@H](Cc1ccc(O)cc1)NC(=O)[C@@H](NC(=O)[C@H](CCC(=O)O)NC(=O)[C@@H](N)CCC(=O)O)[C@@H](C)CC)C(=O)N[C@@H](Cc1ccc(O)cc1)C(=O)O (H-EEIYDEIY-OH) | 4.18 pmol | 14.4 pM | 3.44 | 3.75 | 17.1 | –
4 | CC[C@H](C)[C@H](NC(=O)[C@H](CCC(=O)O)NC(=O)[C@@H](N)CCC(=O)O)C(=O)N[C@@H](Cc1ccc(O)cc1)C(=O)N[C@@H](CC(=O)O)C(=O)N[C@@H](Cc1ccc(O)cc1)C(=O)N[C@@H](C)C(=O)N[C@@H](Cc1ccc(O)cc1)C(=O)O (H-EEIYDYAY-OH) | 6.73 pmol | 22.4 pM | 3.33 | 7.46 | 56.4 | –
5 | CC[C@H](C)[C@H](NC(=O)[C@H](CCC(=O)O)NC(=O)[C@@H](N)CCC(=O)O)C(=O)N[C@@H](Cc1ccc(O)cc1)C(=O)N[C@@H](CCC(=O)O)C(=O)N[C@@H](CCC(=O)O)C(=O)N1CCC[C@H]1C(=O)N[C@@H](Cc1ccc(O)cc1)C(=O)O (H-EEIYEEPY-OH) | 7.56 pmol | 25.5 pM | 3.38 | 12.1 | 98.8 | –
6 | CC[C@H](C)[C@H](NC(=O)[C@H](CCC(=O)O)NC(=O)[C@@H](N)CCC(=O)O)C(=O)N[C@@H](Cc1ccc(O)cc1)C(=O)N[C@@H](Cc1ccc(O)cc1)C(=O)N[C@@H](Cc1ccc(O)cc1)C(=O)N[C@@H](CCC(=O)O)C(=O)N[C@@H](CC(C)C)C(=O)O (H-EEIYYYEL-OH) | 1.27 pmol | 4.48 pM | 3.52 | – | – | –
7 | CC[C@H](C)[C@H](NC(=O)[C@H](CCC(=O)O)NC(=O)[C@@H](N)CCC(=O)O)C(=O)N[C@@H](Cc1ccc(O)cc1)C(=O)N[C@@H](Cc1ccc(O)cc1)C(=O)N[C@@H](Cc1ccc(O)cc1)C(=O)N[C@H](C(=O)N[C@@H](Cc1c[nH]cn1)C(=O)O)C(C)C (H-EEIYYYVH-OH) | 3.37 pmol | 17.7 pM | 5.24 | 2.38 | 32.9 | –
8 | CC[C@H](C)[C@H](NC(=O)[C@H](Cc1c[nH]cn1)NC(=O)[C@@H](N)CCC(=O)O)C(=O)N[C@@H](Cc1ccc(O)cc1)C(=O)N[C@@H](Cc1c[nH]cn1)C(=O)N[C@@H](CCCN=C(N)N)C(=O)N[C@@H](Cc1c[nH]cn1)C(=O)N[C@@H](CCSC)C(=O)O (H-EHIYHRHM-OH) | 0.33 pmol | 2.73 pM | 8.27 | – | – | –
9 | CC[C@H](C)[C@H](NC(=O)[C@H](CCCN=C(N)N)NC(=O)[C@@H](N)CCC(=O)O)C(=O)N[C@@H](Cc1ccc(O)cc1)C(=O)N[C@@H](C)C(=O)N[C@@H](CCCN=C(N)N)C(=O)N[C@H](C(=O)N[C@@H](CCCCN)C(=O)O)[C@@H](C)O (H-ERIYARTK-OH) | 3.37 pmol | 22.9 pM | 6.79 | 2.47 | 42.2 | –
10 | CC[C@H](C)[C@H](NC(=O)[C@H](CCCN=C(N)N)NC(=O)[C@@H](N)CC(C)C)C(=O)N[C@@H](Cc1ccc(O)cc1)C(=O)N[C@@H](CCC(=O)O)C(=O)N[C@@H](CCCN=C(N)N)C(=O)N1CCC[C@H]1C(=O)N[C@@H](CCCN=C(N)N)C(=O)O (H-LRIYERPR-OH) | 1.23 pmol | 10.7 pM | 8.73 | – | – | –
11 | CC[C@H](C)[C@H](NC(=O)[C@H](CCCN=C(N)N)NC(=O)[C@@H]1CCCN1)C(=O)N[C@@H](Cc1ccc(O)cc1)C(=O)N[C@@H](CC(=O)O)C(=O)N[C@H](C(=O)N1CCC[C@H]1C(=O)N[C@@H](Cc1ccc(O)cc1)C(=O)O)[C@@H](C)CC (H-PRIYDIPY-OH) | 1.59 pmol | 9.5 pM | 5.97 | – | – | –
12 | CC[C@H](C)[C@H](NC(=O)[C@H](Cc1ccc(O)cc1)NC(=O)[C@H](CC(=O)O)NC(=O)[C@H](Cc1ccc(O)cc1)NC(=O)[C@@H](NC(=O)[C@H](CCC(=O)O)NC(=O)[C@@H](N)Cc1ccc(O)cc1)[C@@H](C)CC)C(=O)N[C@@H](CCC(=O)O)C(=O)O (H-YEIYDYIE-OH) | 1.89 pmol | 4.33 pM | 2.29 | – | – | –
13 | CC[C@H](C)[C@H](NC(=O)[C@H](CCC(=O)O)NC(=O)[C@@H](N)Cc1ccc(O)cc1)C(=O)N[C@@H](Cc1ccc(O)cc1)C(=O)N[C@@H](CC(=O)O)C(=O)N[C@@H](Cc1ccc(O)cc1)C(=O)N[C@@H](Cc1ccc(O)cc1)C(=O)N[C@H](C(=O)O)C(C)C (H-YEIYDYYV-OH) | 2.71 pmol | 7.89 pM | 2.91 | – | – | –
14 | Bcr/Abl fusion protein (Homo sapiens) (from UniProt P00519+P11274) | – | – | – | – | – | Vmax [6]: 7.33 pmol/min; Vmax [7]: 5.1 pmol/min; Vmax [8]: 7.5 pmol/min; Vmax [9]: 4.64 pmol/min; Vmax [10]: 10.5 pmol/min; Vmax [11]: 5.27 pmol/min; Km [12]: 130 µM; Km [13]: 121 µM; Km [14]: 439 µM; Km [15]: 141 µM; Km [16]: 106 µM; Km [17]: 54 µM
